Inhibition and IC50 data for 62 compounds are collected here from ChEMBL document CHEMBL1122963, “[3H]Batrachotoxinin A 20 alpha-benzoate binding to voltage-sensitive sodium channels: a rapid and quantitative assay for local anesthetic activity in a variety of drugs” (J Med Chem, 1985).

For orientation: inhibition means how much of the control response was suppressed. The low end stands for a response near the control, the high end for a response far below the control. As a reminder, the IC50 is the concentration that inhibits the measured activity by half.

The target of assay [1] is T1, Sodium channel alpha subunits; brain (Types I, II, III) (Homo sapiens, UniProt P35498+Q99250+Q9NY46). The note with it: Cavia porcellus; Cerebral cortex; at 10 µM.
Assay [2] concerns the target T1, Sodium channel alpha subunits; brain (Types I, II, III). To be noted: Cavia porcellus; Cerebral cortex; at 100 µM.
The target is the same in assay [3]. In words: Inhibition of binding of Batrachotoxinin [3H]BTX-B to high affinity sites on voltage dependent sodium channels in a vesicular preparation from guinea pig cerebral cortex. It is filed as tissue-based, Cavia porcellus.

T1 sequence (Q99250 whole entry, looked up, other chains not shown): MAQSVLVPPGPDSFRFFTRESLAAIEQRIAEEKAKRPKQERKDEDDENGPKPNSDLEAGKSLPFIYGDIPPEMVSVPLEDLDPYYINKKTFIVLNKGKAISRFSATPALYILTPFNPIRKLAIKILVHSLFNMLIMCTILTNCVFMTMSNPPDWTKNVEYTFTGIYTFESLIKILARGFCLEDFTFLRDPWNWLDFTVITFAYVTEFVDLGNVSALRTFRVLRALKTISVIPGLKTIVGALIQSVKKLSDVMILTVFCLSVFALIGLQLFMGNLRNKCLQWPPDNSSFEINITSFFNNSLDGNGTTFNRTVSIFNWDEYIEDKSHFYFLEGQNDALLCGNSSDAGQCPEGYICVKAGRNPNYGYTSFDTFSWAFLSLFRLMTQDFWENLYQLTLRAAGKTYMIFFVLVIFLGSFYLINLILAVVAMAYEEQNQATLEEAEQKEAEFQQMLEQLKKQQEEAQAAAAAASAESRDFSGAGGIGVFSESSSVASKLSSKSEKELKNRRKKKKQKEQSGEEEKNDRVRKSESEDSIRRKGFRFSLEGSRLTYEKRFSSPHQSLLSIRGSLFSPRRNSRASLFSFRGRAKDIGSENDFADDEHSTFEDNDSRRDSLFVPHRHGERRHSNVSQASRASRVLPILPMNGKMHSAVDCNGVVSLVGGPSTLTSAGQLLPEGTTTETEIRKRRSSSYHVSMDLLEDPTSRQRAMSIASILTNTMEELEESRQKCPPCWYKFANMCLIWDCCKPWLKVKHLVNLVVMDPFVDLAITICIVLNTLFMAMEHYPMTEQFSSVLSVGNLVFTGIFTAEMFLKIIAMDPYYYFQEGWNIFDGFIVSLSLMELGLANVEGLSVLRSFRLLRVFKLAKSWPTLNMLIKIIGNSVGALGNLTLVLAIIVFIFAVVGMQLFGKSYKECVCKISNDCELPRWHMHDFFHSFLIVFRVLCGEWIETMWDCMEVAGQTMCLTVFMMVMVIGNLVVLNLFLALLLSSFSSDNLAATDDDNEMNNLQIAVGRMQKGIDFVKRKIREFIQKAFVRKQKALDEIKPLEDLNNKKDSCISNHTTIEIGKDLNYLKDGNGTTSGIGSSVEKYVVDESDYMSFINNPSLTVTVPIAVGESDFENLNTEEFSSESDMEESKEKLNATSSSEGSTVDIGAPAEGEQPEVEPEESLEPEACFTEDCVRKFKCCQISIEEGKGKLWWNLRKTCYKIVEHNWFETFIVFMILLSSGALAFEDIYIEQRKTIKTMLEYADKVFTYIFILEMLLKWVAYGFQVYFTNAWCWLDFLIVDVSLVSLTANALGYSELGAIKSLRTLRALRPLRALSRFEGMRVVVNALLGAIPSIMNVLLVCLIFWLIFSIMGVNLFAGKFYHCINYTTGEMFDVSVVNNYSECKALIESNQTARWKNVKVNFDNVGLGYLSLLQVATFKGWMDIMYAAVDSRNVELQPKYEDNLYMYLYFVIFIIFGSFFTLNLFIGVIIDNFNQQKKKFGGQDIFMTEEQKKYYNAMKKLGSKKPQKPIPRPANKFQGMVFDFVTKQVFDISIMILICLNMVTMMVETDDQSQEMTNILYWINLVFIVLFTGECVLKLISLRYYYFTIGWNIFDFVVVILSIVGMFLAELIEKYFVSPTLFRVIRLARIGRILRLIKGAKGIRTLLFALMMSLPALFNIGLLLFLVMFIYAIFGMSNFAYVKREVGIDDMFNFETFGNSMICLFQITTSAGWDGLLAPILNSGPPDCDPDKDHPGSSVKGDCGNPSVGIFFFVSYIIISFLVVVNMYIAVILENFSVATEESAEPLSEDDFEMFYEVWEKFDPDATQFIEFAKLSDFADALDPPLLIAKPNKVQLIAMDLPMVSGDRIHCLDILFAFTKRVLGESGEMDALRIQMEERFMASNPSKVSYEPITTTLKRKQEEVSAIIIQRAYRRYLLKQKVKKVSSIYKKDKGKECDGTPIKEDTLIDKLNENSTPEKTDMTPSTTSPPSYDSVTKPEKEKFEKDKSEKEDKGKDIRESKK
T1 sequence (Q9NY46 whole entry, looked up, other chains not shown): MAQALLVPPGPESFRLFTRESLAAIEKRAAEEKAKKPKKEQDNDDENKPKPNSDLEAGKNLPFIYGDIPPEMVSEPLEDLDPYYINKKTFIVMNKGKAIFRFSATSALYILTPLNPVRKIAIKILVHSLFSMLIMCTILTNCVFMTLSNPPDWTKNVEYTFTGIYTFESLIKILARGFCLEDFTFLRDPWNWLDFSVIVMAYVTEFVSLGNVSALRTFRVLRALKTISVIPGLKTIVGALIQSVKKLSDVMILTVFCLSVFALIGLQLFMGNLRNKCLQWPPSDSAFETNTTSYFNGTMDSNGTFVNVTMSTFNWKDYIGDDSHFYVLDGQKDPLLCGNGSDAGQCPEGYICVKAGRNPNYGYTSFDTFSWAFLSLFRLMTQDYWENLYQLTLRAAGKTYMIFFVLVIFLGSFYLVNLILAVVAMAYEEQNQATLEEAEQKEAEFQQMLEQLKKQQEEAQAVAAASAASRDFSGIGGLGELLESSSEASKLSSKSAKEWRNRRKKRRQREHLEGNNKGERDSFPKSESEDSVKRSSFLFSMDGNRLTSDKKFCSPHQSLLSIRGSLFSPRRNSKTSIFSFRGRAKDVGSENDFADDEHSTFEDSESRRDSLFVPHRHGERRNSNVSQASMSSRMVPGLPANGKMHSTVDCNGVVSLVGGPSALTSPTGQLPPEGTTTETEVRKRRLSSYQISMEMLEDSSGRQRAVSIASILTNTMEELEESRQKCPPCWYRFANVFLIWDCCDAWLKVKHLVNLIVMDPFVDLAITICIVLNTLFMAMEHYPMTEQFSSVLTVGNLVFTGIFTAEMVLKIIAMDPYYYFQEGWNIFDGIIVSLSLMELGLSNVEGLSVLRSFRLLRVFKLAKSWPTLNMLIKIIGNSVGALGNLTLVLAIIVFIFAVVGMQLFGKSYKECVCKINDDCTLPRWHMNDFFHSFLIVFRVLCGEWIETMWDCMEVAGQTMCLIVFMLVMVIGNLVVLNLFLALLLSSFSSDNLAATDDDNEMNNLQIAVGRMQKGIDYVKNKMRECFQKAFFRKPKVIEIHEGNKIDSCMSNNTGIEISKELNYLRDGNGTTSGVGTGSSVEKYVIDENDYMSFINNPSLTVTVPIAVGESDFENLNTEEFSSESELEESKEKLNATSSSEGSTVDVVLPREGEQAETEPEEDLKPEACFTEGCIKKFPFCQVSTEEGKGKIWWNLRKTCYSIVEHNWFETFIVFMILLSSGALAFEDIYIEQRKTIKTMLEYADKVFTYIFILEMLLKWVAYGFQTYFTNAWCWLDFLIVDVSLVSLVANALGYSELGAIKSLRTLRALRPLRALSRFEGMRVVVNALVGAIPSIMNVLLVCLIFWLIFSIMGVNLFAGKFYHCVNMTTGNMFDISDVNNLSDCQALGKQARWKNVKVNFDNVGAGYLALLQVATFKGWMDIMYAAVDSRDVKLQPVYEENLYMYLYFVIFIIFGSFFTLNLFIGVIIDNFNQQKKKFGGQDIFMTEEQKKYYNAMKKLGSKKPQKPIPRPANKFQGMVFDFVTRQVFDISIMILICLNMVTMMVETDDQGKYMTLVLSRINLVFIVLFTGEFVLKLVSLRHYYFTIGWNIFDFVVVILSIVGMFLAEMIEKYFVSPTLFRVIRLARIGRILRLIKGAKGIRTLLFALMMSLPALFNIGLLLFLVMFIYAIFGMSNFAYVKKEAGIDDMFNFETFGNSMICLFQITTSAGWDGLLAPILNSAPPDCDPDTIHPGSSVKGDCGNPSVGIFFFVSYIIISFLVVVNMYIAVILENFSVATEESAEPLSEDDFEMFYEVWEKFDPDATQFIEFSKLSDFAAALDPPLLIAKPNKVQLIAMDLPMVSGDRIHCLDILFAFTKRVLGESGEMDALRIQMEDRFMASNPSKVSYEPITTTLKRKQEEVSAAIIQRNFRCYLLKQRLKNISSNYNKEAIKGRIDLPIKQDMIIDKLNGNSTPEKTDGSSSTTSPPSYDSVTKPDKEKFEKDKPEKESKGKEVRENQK

Turning to `CCOC(=O)c1cnc2c(cnn2CC)c1NN=C(C)C`, the results for the inhibition in assay [1] and in assay [2] were 8.3% and 20.1%, respectively.

As to `COc1ccc(C2CNC(=O)C2)cc1OC1CCCC1` (centres undefined), the values for the inhibition in assay [1] and in assay [2] were 3.1% and 8.5%, respectively.

As to `CN1CCc2cc3c(cc2[C@H]1[C@@H]1OC(=O)c2c1ccc1c2OCO1)OCO3`, in assay [2], the inhibition was determined as 1.8%.

On to `CCCC(C)C1(CC)C(=O)NC(=O)NC1=O` (centres undefined), for which the values for the inhibition in assay [1] and in assay [2] were 1.2% and 7.6%, respectively.

Take `CCN(CC)CCNC(=O)c1ccc(N)cc1`: the inhibition in assay [1] was found to be 7.8%; in assay [2], 22.5%.

For the compound `CCCCOC(=O)c1ccc(N)cc1`, the inhibition worked out at 7% in assay [1] and 36.8% in assay [2].

`CC(C)NCC(O)c1ccc(NS(C)(=O)=O)cc1` (centres undefined) registered an inhibition in assay [2] of 4.6%.

For `O=c1n(CCCN2CCN(c3cccc(Cl)c3)CC2)nc2ccccn12`, the inhibition in assay [1] is 26.2%; in assay [2], 79.6%.

Turning to `CCCNC(C)C(=O)Nc1c(C)csc1C(=O)OC` (centres undefined) [ARTICAINE], the values for the inhibition in assay [1] and in assay [2] were 17.1% and 62.2%, respectively.

As for `Nc1nc(Cl)nc2c1ncn2[C@@H]1O[C@H](CO)[C@@H](O)[C@H]1O`, the inhibition was found to be 1.3% in assay [1] and 3.5% in assay [2].

Compound `C[C@@H]1O[C@H](n2cnc3c(N)ncnc32)C[C@H]1O` registered an inhibition in assay [2] of 3.5%.

In assay [2], `CC[C@@H](CO)NC(=O)[C@@H]1C=C2c3cccc4c3c(cn4C)C[C@H]2N(C)C1` gave an inhibition of 17.8%.

As to `C[C@]12CC[C@@H]3c4ccc(O)cc4CC[C@H]3[C@@H]1CC[C@@H]2O`, the inhibition in assay [1] worked out at 17.8%; in assay [2] it was 53.3%.

For the compound `Cc1cccc(C)c1NC(=O)C1CCCCN1C` (centres undefined), the inhibition came out at 5.3% in assay [1] and 29.3% in assay [2].

Turning to `CN/C(=N\CCSCc1nc[nH]c1C)NC#N`, the inhibition came out at 0% in assay [1] and 4.1% in assay [2].

In the case of `COc1ccc(C2C(=O)c3ccccc3C2=O)cc1`, the inhibition in assay [1] came to 1.3%; in assay [2], 0%.

As for `Cn1c(=O)c2nc(-c3ccc(S(=O)(=O)O)cc3)[nH]c2n(C)c1=O`, the inhibition in assay [1] amounted to 1.6%; in assay [2], 2.9%.

`CCN(CC)CC(=O)Nc1c(C)cccc1C`: the values for the inhibition in assay [1] and in assay [2] were 9.8% and 31.4%, respectively.

In the case of `C=C(c1ccc(Oc2cccc3ccccc23)cc1)C1COC2(CCCCC2)OO1.Cl` (centres undefined), the IC50 in assay [3] was determined as 7 µM. The inhibition in assay [1] was determined as 68.3%.

Turning to `CSc1ccc2c(c1)N(CCC1CCCCN1C)c1ccccc1S2` (centres undefined) [THIORIDAZINE], in assay [3], the IC50 turned out to be 6.5 µM. The compound also showed an inhibition in assay [1] of 63.5%.

In the case of `CN(C)CCC=C1c2ccccc2CCc2ccccc21` [AMITRIPTYLINE], in assay [3], the IC50 is under 10 µM. Also, in assay [1], the inhibition came to 73.8%.

Regarding `CN(C)CCCN1c2ccccc2[S+]([O-])c2ccc(Cl)cc21` (centres undefined), the inhibition in assay [1] was determined as 18%; in assay [2], 69.1%.

In assay [3], `CN(C)C(=O)C(CCN1CCC(O)(c2ccc(Cl)c(C(F)(F)F)c2)CC1)(c1ccccc1)c1ccccc1` [FLUPERAMIDE] returned an IC50 of 0.28 µM. Also, the inhibition in assay [1] amounted to 100%.

`CN(C)CCCN1c2ccccc2Sc2ccc(Cl)cc21` [CHLORPROMAZINE] yielded a concentration for half-maximal inhibition (IC50) in assay [3] of 4.3 µM. Besides, the inhibition in assay [1] turned out to be 72.2%.

Consider `CC(C)NC[C@@H](O)COc1cccc2ccccc12` [DEXPROPRANOLOL], for which, in assay [3], the IC50 amounted to 10 µM. In assay [1], this compound registered an inhibition of 50%.

In assay [3], `COc1cc(C(=O)OCCCN(C)CCN(C)CCCOC(=O)c2cc(OC)c(OC)c(OC)c2)cc(OC)c1OC` [HEXOBENDINE] showed an IC50 of 1.4 µM. In addition, the inhibition in assay [1] came out at 77.2%.

Take `COC(=O)[C@H]1[C@H]2C[C@@H]3c4[nH]c5cc(OC)ccc5c4CCN3C[C@H]2C[C@@H](OC(=O)c2cc(OC)c(OC)c(OC)c2)[C@@H]1OC` [RESERPINE]: the IC50 in assay [3] was determined as 1.6 µM. The inhibition in assay [1] turned out to be 100%.

Take `CN1CCN(CCCN2c3ccccc3Sc3ccc(C(F)(F)F)cc32)CC1` [TRIFLUOPERAZINE]: in assay [3], the IC50 turned out to be 5 µM. This compound also came in with an inhibition in assay [1] of 79.8%.

Take `OCCOCCN1CCN(C(c2ccccc2)c2ccc(Cl)cc2)CC1` (centres undefined) [HYDROXYZINE]: the IC50 in assay [3] was under 10 µM. For the same compound, the inhibition in assay [1] came to 73.9%.

Compound `CCCCc1cc2ccccc2c(OCCN(C)C)n1` [DIMETHISOQUIN] registered an IC50 in assay [3] of 3.4 µM. The compound further returned an inhibition in assay [1] of 73.4%.

In assay [3], `Cl.NCCCCCCNS(=O)(=O)c1cccc2c(Cl)cccc12` [N-AMINOHEXYL-5-CHLORO-1-NAPTHALENESULFONAMIDE HYDROCHLORIDE] registered an IC50 of 12 µM. Moreover, the inhibition in assay [1] was 46.8%.

In assay [3], `CC(C)(C)NCC(CO)O/N=C1\c2ccccc2C2C=CC=CC12` (centres undefined) had an IC50 of 3.7 µM. Also, in assay [1], the inhibition is 72.5%.

`COc1cccc(OC)c1OCCNCC1=COc2ccccc2O1`: the IC50 in assay [3] amounted to 2.4 µM. The compound further displayed an inhibition in assay [1] of 67.7%.

Turning to `COC(=O)C1=C(C)NC(C)=C(C(=O)OCC(C)C)C1c1ccccc1[N+](=O)[O-]` (centres undefined) [NISOLDIPINE], the IC50 in assay [3] came to 26 µM. The inhibition in assay [1] worked out at 25.9%.

In assay [3], `CN(C(=O)CN(CCO)CC(=O)N(C)C(C)(C)Cc1ccccc1)C(C)(C)Cc1ccccc1` [OXETHAZAINE] displayed an IC50 of 2.3 µM. Further, the inhibition in assay [1] was 83.9%.

For `CC(C)COCC(CN(Cc1ccccc1)c1ccccc1)N1CCCC1` (centres undefined) [BEPRIDIL], in assay [3], the IC50 stood at 0.84 µM. The same compound had an inhibition in assay [1] of 96.2%.

Turning to `CC1CCCCN1CCCOC(=O)c1ccc(OC2CCCCC2)cc1` (centres undefined) [CYCLOMETHYCAINE], the IC50 in assay [3] was 2 µM. Also, the inhibition in assay [1] came out at 81.9%.

In turn, `CN1CC[C@]23c4c5ccc(O)c4O[C@H]2[C@@H](O)C=C[C@H]3[C@H]1C5` returned an inhibition in assay [2] of 5.3%.

For `COc1cc2nc(N3CCN(C(=O)c4ccco4)CC3)nc(N)c2cc1OC` [PRAZOSIN], the IC50 in assay [3] turned out to be 10.1 µM. The compound further had an inhibition in assay [1] of 58.6%.

With `CC(C)NCC(O)c1ccc(Cl)c(Cl)c1` (centres undefined) [DICHLOROISOPROTERENOL], in assay [3], the IC50 was under 10 µM. This compound also returned an inhibition in assay [1] of 53%.

Compound `CC1CCCCN1CCCOC(=O)c1ccccc1` (centres undefined) [PIPEROCAINE] yielded an IC50 in assay [3] of 13 µM. For the same compound, the inhibition in assay [1] turned out to be 43.6%.

`CC(CNC1CCCCC1)OC(=O)c1ccccc1` (centres undefined) [HEXYLCAINE]: the IC50 in assay [3] amounted to 7 µM. The compound further returned an inhibition in assay [1] of 54.9%.

Compound `CCCC(C(=O)OCC[N+](C)(CC)CC)(c1ccccc1)c1ccccc1.[I-]` returned an IC50 in assay [3] of 4.2 µM. Further, the inhibition in assay [1] came to 72%.

Regarding `CN1CC[C@@]23CCCC[C@@H]2[C@@H]1Cc1ccc(O)cc13` [DEXTRORPHAN], the IC50 in assay [3] is 18 µM. The inhibition in assay [1] was 38.2%.

Consider `CCCNC(C)(C)COC(=O)c1ccccc1` [MEPRYLCAINE], for which, in assay [3], the IC50 was found to be 7.6 µM. Moreover, the inhibition in assay [1] was 57.6%.

Take `CN(C)C(=O)C(CCN1CCC(O)(c2ccc(Cl)cc2)CC1)(c1ccccc1)c1ccccc1` [LOPERAMIDE]: in assay [3], the IC50 came out at 0.27 µM. In assay [1], this compound gave an inhibition of 100%.

Compound `COc1cc(C(=O)OCCCN2CCCN(CCCOC(=O)c3cc(OC)c(OC)c(OC)c3)CC2)cc(OC)c1OC` [DILAZEP] returned an IC50 in assay [3] of 0.6 µM. Further, in assay [1], the inhibition came to 99.3%.

`CCCOc1cc(N)ccc1C(=O)OCCN(CC)CC` [PROPOXYCAINE] displayed an IC50 in assay [3] of 24 µM. The compound also had an inhibition in assay [1] of 30%.

In assay [3], `CCOC(=O)C1=C(C)NC(C)=C(C(=O)OC)C1c1cccc([N+](=O)[O-])c1` (centres undefined) [NITRENDIPINE] had an IC50 of 36 µM. For the same compound, in assay [1], the inhibition worked out at 23.1%.

Turning to `COc1ccc(CCN(C)CCCC(C#N)(c2cc(OC)c(OC)c(OC)c2)C(C)C)cc1OC` (centres undefined) [GALLOPAMIL], in assay [3], the IC50 turned out to be 3.6 µM. Besides, the inhibition in assay [1] came out at 67.1%.

For the compound `CN(C)CC/C=C1/c2ccccc2Sc2ccc(Cl)cc21` [CHLORPROTHIXENE], the IC50 in assay [3] is under 10 µM. Also, in assay [1], the inhibition was 55.2%.

Compound `CC[C@@H]1CN2CC[C@@H]1C[C@H]2[C@H](O)c1ccnc2ccc(OCCC(C)C)cc12` came in with an IC50 in assay [3] of 0.74 µM. Moreover, the inhibition in assay [1] is 95.7%.

`CNCCC=C1c2ccccc2CCc2ccccc21` [NORTRIPTYLINE]: the IC50 in assay [3] is under 10 µM. For the same compound, the inhibition in assay [1] came out at 69.4%.

`CC(C)NC[C@H](O)COc1cccc2ccccc12` [LEVOPROPRANOLOL] had an IC50 in assay [3] of 13 µM. This compound also displayed an inhibition in assay [1] of 42.6%.

In assay [3], `CCCC(C(=O)OCCN(CC)CC)(c1ccccc1)c1ccccc1` [PROADIFEN] registered an IC50 of 4.2 µM. The compound also had an inhibition in assay [1] of 75.4%.

As to `O=C(Nc1ccccc1)OCC(CN1CCCCC1)OC(=O)Nc1ccccc1` (centres undefined) [DIPERODON], in assay [3], the IC50 was determined as 1.3 µM. In assay [1], this compound showed an inhibition of 87.8%.

In assay [3], `OC(CCCN1CCCCC1)(c1ccccc1)c1ccccc1` [DIPHENIDOL] had an IC50 of 3.4 µM. This compound also yielded an inhibition in assay [1] of 65.1%.

Turning to `Cc1ccc(OCC(O)C(C)NC(C)C)c2c1CCC2` (centres undefined) [ZENIDOLOL], the IC50 in assay [3] was under 10 µM. The same compound registered an inhibition in assay [1] of 64.2%.

Take `CC(C)Cn1c(=O)n(C)c(=O)c2nc[nH]c21` [ISOBUTYLMETHYLXANTHINE]: in assay [3], the IC50 came to 1.8 µM. Besides, the inhibition in assay [1] amounted to 0.9%.

`C=C(C)[C@@H]1[C@H]2OC(=O)[C@@H]1[C@]1(O)C[C@H]3OC34C(=O)O[C@H]2[C@@]41C.CC(C)(O)[C@@H]1[C@H]2OC(=O)[C@@H]1[C@]1(O)C[C@H]3OC34C(=O)O[C@H]2[C@@]41C` (some centres undefined) [PICROTOXIN]: the IC50 in assay [3] is 700 µM. In assay [1], the inhibition was 22.7%.

`CCOC(=O)C1=C(C)NC(C)=C(C(=O)OC)C1c1cccc(Cl)c1Cl` (centres undefined) [FELODIPINE]: the IC50 in assay [3] turned out to be 37 µM. The inhibition in assay [1] stood at 20.1%.

`CN(C)CCCN1c2ccccc2Sc2ccccc21` [PROMAZINE] came in with an IC50 in assay [3] of 5.4 µM. Also, the inhibition in assay [1] is 65.3%.
